Several values for one entry are separate records, joined by “and”; a condition that tells them apart may be missing. Identical values can stand only once.
Legend:
Assay type in all cases: cell-based
[1] = test system: AHAS; test: in vivo AHAS assay, sunflower leaf discs with external supplement; settings: 14 hours
Procedure: (§1) The procedure for the preparation of an in vivo AHAS assay is described below:
(§2) For the experiments, plants are grown from seed in soil in a greenhouse. Most experiments used wild type and imidazolinone resistant varieties of wheat, canola, rice, sunflower, and maize.
(§3) For the assay, a a microtiter plate is set up with 100 μl of one of the following solutions in each well: • a. […] Plant., 15 473-497 (1962)); 500 μM CPCA (cyclopropyldicarboxylic acid); • b. Solution B: Solution A+alanine (or other supplements); • c. Solution C: Solution A+a pyruvate salt (or other supplements).
(§4) Plant material is excised from the newest emerging, rapidly growing leaf or stem from the test plant and placed in one of the microtiter plates. Usually, 5 mm leaf discs are cut from the newest emerging leaf. At least 2 discs per plant are cut. One disc is put in a well with Solution A and the other disc in a well with one of the other Solutions B or C (what solution are you using for background?).
(§5) After all wells in the microtiter plate contain plant material, the plate is covered with the microtiter plate cover and the plate with material is placed in a chamber with continuous fluorescent lights for 12 to 16 hours. The incubation is stopped by placing the plate in −20° C. freezer. After tissue and solutions freeze, the plate is thawed at room temperature and 25 μL of 5% sulfuric acid are added to each well. After incubation at 60° C. for 15 minutes, 175 μL of a freshly prepared mixture of α-naphthol (2.5%) and creatine (0.25%) in 2 N NaOH are added to each well and the plate is incubated at 60° C. for 15 minutes.
(§6) 200 μL from each well are transferred to a new plate and OD530 on microtiter plate is readed by a spectrophotometer.

[2] = test system: AHAS; test: in vivo AHAS assay, rice leaf discs with external supplement
Procedure: as §1, §2, §3, §4, §5, §6

[3] = test system: AHAS; test: in vivo AHAS assay, canola leaf discs with external supplement
[4] = test system: AHAS; test: in vivo AHAS assay, maize leaf discs with external supplement
Procedure: as §1, §2, §3, §4, §5, §6

[5] = test system: AHAS; test: in vivo AHAS assay, canola leaf discs with external supplement; settings: for % of No Alaninor Pyruvate: Pyruvate 0 mM
Procedure: as §1, §2
(§7) For the assay, a a microtiter plate is set up with 100 μl of one of the following solutions in each well: • a. Solution A: 10 mM phosphate buffer, pH 6; 10% Murashige and Skoog basal mineral salts (according to Murashige, T. and Skoog, F., Physiol. Plant., 15 473-497 (1962)); 500 μM CPCA (cyclopropyldicarboxylic acid); • b. Solution B: Solution A+alanine (or other supplements); • c. Solution C: Solution A+a pyruvate salt (or other supplements).
as §4, §5, §6

[6] = test system: AHAS; test: in vivo AHAS assay, wheat leaf discs with external supplement; settings: 14 hours
Procedure: as §1, §2, §7
Plant material is excised from the newest emerging, rapidly growing leaf or stem from the test plant and placed in one of the microtiter plates. Usually, 5 mm leaf discs are cut from the newest emerging leaf. At least 2 discs per plant are cut. One disc is put in a well with Solution A and the other disc in a well with one of the other Solutions B or C (what solution are you using for background?). […]
as §6

[7] = alanine 1.000 % vs 0.000 %, 14 hours
[8] = alanine 1.000 %, 14 hours, 500 μM CPCA
[9] = canola, Alanine (100 mM), replicates 1-3, 14 hours

C[C@H](N)C(=O)O [Alanine, L-alanine]
Ratio (Ala/No Ala) ([1]; Sunflower, alanine 1.000 % vs 0.000 %): 3.8 | OD 530 ([1]; Sunflower, alanine 1.000 %, 500 μM CPCA): 1.857 | Ratio (Ala/No Ala) ([1]; Sunflower, pH 4): 4.67 | in vivo AHAS activity, Alanine (%) 1 ([1]; Sunflower, pH 4): 1.682 | Ratio (Ala/No Ala) ([1]; Sunflower, pH 5): 3.62 | in vivo AHAS activity, Alanine (%) 1 ([1]; Sunflower, pH 5): 0.745 | Ratio (Ala/No Ala) ([1]; Sunflower, pH 6): 5.20 | in vivo AHAS activity, Alanine (%) 1 ([1]; Sunflower, pH 6): 0.843 | Ratio (Ala/No Ala) ([1]; Sunflower, pH 7): 4.10 | in vivo AHAS activity, Alanine (%) 1 ([1]; Sunflower, pH 7): 0.48 | OD 530 ([1]; sunflower, 1% Alanine, disc size 0.25 cm^2, 7 discs): 1.861 | OD 530 ([1]; sunflower, 1% Alanine, disc size 0.56 cm^2, 3 discs): 0.695 | OD 530 ([1]; sunflower, 1% Alanine, disc size 0.82 cm^2, 2 discs): 0.646 | OD 530 ([1]; sunflower, 1% Alanine, disc size 1.76 cm^2, 1 disc): 0.447 | Ratio (Ala/No Ala) [2, 7]: 7.0 | OD 530 [2, 8]: 1.257 | Ratio (Ala/No Ala) ([2]; pH 4, 14 hours): 2.83 | in vivo AHAS activity, Alanine (%) 1 ([2]; pH 4, alanine 1 %, 14 hours): 0.903 | Ratio (Ala/No Ala) ([2]; pH 5, 14 hours): 3.57 | in vivo AHAS activity, Alanine (%) 1 ([2]; pH 5, alanine 1 %, 14 hours): 0.731 | Ratio (Ala/No Ala) ([2]; pH 6, 14 hours): 3.65 | in vivo AHAS activity, Alanine (%) 1 ([2]; pH 6, alanine 1 %, 14 hours): 0.639 | Ratio (Ala/No Ala) ([2]; pH 7, 14 hours): 3.31 | in vivo AHAS activity, Alanine (%) 1 ([2]; pH 7, alanine 1 %, 14 hours): 0.58 | Ratio (Ala/No Ala) ([3]; pH 4, 14 hours): 2.78 | in vivo AHAS activity, Alanine (%) 1 ([3]; pH 7, alanine 1 %, 14 hours): 2.299 | Ratio (Ala/No Ala) [4, 7]: 1.7 | OD 530 [4, 8]: 0.203 | Ratio (Ala/No Ala) ([4]; pH 4, 14 hours): 1.89 | in vivo AHAS activity, Alanine (%) 1 ([4]; pH 4, alanine 1 %, 14 hours): 0.909 | Ratio (Ala/No Ala) ([4]; pH 5, 14 hours): 3.50 | in vivo AHAS activity, Alanine (%) 1 ([4]; pH 5, alanine 1 %, 14 hours): 0.847 | Ratio (Ala/No Ala) ([4]; pH 6, 14 hours): 5.71 | in vivo AHAS activity, Alanine (%) 1 ([4]; pH 6, alanine 1 %, 14 hours): 1.033 | Ratio (Ala/No Ala) ([4]; pH 7, 14 hours): 4.32 | in vivo AHAS activity, Alanine (%) 1 ([4]; pH 7, alanine 1 %, 14 hours): 1.128 | Ratio (Ala/No Ala) ([5]; Canola, alanine 1.000 % vs 0.000 %, 14 hours): 5.4 | OD 530 ([5]; Canola, alanine 1.000 %, 14 hours, 500 μM CPCA): 2.838 | in vivo AHAS activity, Alanine (%) 1 ([5]; Canola, pH 4, alanine 1 %, 14 hours): 2.271 | Ratio (Ala/No Ala) ([5]; Canola, pH 5, 14 hours): 2.94 | in vivo AHAS activity, Alanine (%) 1 ([5]; Canola, pH 5, alanine 1 %, 14 hours): 2.383 | Ratio (Ala/No Ala) ([5]; Canola, pH 6, 14 hours): 3.12 | in vivo AHAS activity, Alanine (%) 1 ([5]; Canola, pH 6, alanine 1 %, 14 hours): 2.036 | Ratio (Ala/No Ala) ([5]; Canola, pH 7, 14 hours): 2.38 | Increased Activity (%) ([5]; canola 45A71, alanine 0.063 % compared with no alanine): 150% | OD 530 ([5]; canola 45A71, alanine 0.063 %, pH 6, 14 hours): 0.785 | Increased Activity (%) ([5]; canola 45A71, alanine 0.125 % compared with no alanine): 182% | OD 530 ([5]; canola 45A71, alanine 0.125 %, pH 6, 14 hours): 0.955 | Increased Activity (%) ([5]; canola 45A71, alanine 0.25 % compared with no alanine): 181% | OD 530 ([5]; canola 45A71, alanine 0.25 %, pH 6, 14 hours): 0.946 | Increased Activity (%) ([5]; canola 45A71, alanine 0.5 % compared with no alanine): 198% | OD 530 ([5]; canola 45A71, alanine 0.5 %, pH 6, 14 hours): 1.038 | Increased Activity (%) ([5]; canola 45A71, alanine 1 % compared with no alanine): 262% | OD 530 ([5]; canola 45A71, alanine 1 %, pH 6, 14 hours): 1.373 | Increased Activity (%) ([5]; canola 45A71, alanine 2 % compared with no alanine): 290% | OD 530 ([5]; canola 45A71, alanine 2 %, pH 6, 14 hours): 1.518 | Increased Activity (%) ([5]; canola 45A71, alanine 4 % compared with no alanine): 190% | OD 530 ([5]; canola 45A71, alanine 4 %, pH 6, 14 hours): 0.997 | Increased Activity (%) ([5]; canola Westar, alanine 0.063 % compared with no alanine): 195% | OD 530 ([5]; canola Westar, alanine 0.063 %, pH 6, 14 hours): 0.978 | Increased Activity (%) ([5]; canola Westar, alanine 0.125 % compared with no alanine): 177% | OD 530 ([5]; canola Westar, alanine 0.125 %, pH 6, 14 hours): 0.885 | Increased Activity (%) ([5]; canola Westar, alanine 0.25 % compared with no alanine): 239% | OD 530 ([5]; canola Westar, alanine 0.25 %, pH 6, 14 hours): 1.197 | Increased Activity (%) ([5]; canola Westar, alanine 0.5 % compared with no alanine): 229% | OD 530 ([5]; canola Westar, alanine 0.5 %, pH 6, 14 hours): 1.149 | Increased Activity (%) ([5]; canola Westar, alanine 1 % compared with no alanine): 396% | OD 530 ([5]; canola Westar, alanine 1 %, pH 6, 14 hours): 1.983 | Increased Activity (%) ([5]; canola Westar, alanine 2 % compared with no alanine): 250% | OD 530 ([5]; canola Westar, alanine 2 %, pH 6, 14 hours): 1.25 | Increased Activity (%) ([5]; canola Westar, alanine 4 % compared with no alanine): 201% | OD 530 ([5]; canola Westar, alanine 4 %, pH 6, 14 hours): 1.009 | % of No Alaninor Pyruvate ([5]; canola, Alanine 0.5 %, 14 hours): 144% | % of No Alaninor Pyruvate ([5]; canola, Alanine 1 %, 14 hours): 174% | % of 0/0 [5, 9]: 129% and 104% and 100% | OD 530, Avg. of the treated discs [5, 9]: 1.538 and 1.574 and 1.298 | OD 530, Treated ([5]; canola, Alanine (100 mM), single treated discs, replicates 1-3, 14 hours): 1.529 and 1.487 and 1.335 and 1.760 and 1.691 and 1.551 and 1.498 and 1.571 and 1.007 | Ratio (Ala/No Ala) ([6]; alanine 1.000 % vs 0.000 %): 2.1 | OD 530 ([6]; alanine 1.000 %, 500 μM CPCA): 0.832

From patent publication US20050014647A1, “Method and composition for determining resistance to an acetohydroxy-acid synthase inhibitor” (priority 2001, published 2005)
